Structures can show the parent of a compound that is named as a salt.
Legend:
[1] = system: serotonergic B65 cells; design: method as in doi:10.1007/s11419-020-00527-w; conditions: cited from earlier work
[2] = system: MAO-A and MAO-B; conditions: rat model; cited from earlier work
[3] = system: differentiated SH-SY5Y cells; conditions: same experimental conditions; cited from earlier work
[4] = system: differentiated SH-SY5Y cells; design: method as in PMID 37631071, PMID 25900438; conditions: same in vitro model; cited from earlier work
[5] = system: differentiated SH-SY5Y cells; design: method as in PMID 37631071, PMID 25900438; conditions: same in vitro model; cited from earlier work; remark: listed apart in the source
[6] = system: differentiated SH-SY5Y cells; experiment: Total glutathione (tGSH) levels, DTNB-GSH recycling assay; assay type: cell-based, human; conditions: 100 μM, 24 h; control 100.0%
Text: Glutathione has a critical role in cellular physiology, playing multiple essential roles in maintaining cellular health and function, including antioxidant defense, detoxification, and cellular signaling. The 5,5′-dithiobis(2-nitrobenzoic acid) (DTNB)-GSH recycling assay was used to measure total GSH (tGSH), which includes the reduced (GSH) and oxidized (GSSG) forms of glutathione. The assay relies on the reaction of GSH with DTNB, producing the yellow-colored 5-thio-2-nitrobenzoic acid (TNB). Thus, the TNB generated is directly proportional to the amount of GSH present in the sample [31].
Thus, the SH-SY5Y cells were seeded onto 6-well plates (25,000 cells/cm^2) following the previously described seeding and differentiation protocol. On the day of the experiment, the cells were exposed to different concentrations of the tested drugs (EC20 and EC50) for 24 h (37 °C, 5% CO2). At the end of the incubation period, the cells were centrifuged (5 min, 250 g, 4 °C). For the analysis of extracellular GSH levels, the supernatants were collected, and proteins precipitated with 30% HClO4 for at least 30 min (4 °C). For the analysis of intracellular GSH levels, after collecting the supernatants, the cells were treated with 5% HClO4 for at least 30 min (4 °C). Subsequently, the acidic samples were collected from the plates and centrifuged (5 min, 16,000× g, 4 °C), and the supernatants were stored until further analysis (−80 °C). To assess protein content, the pellets were resuspended in 1M NaOH, maintained at 4 °C overnight, and stored until further analysis (−20 °C). A Bio-Rad DC™ protein assay kit (Bio-Rad Laboratories, Hercules, CA, USA) was used to analyze protein content, in accordance with the manufacturer’s guidelines.
Before the tGSH quantification, the acidic samples were diluted (1:2) with 5% HClO4, and the diluted samples/standards were neutralized with an ice-cold KHCO3 solution (1:1) and centrifuged (5 min, 16,000× g, 4 °C).
Then, 100 µL of supernatant from each sample/standard was transferred into a 96-well plate and 65 µL of an extemporaneous reagent solution (0.68 mM NADPH and 3.96 mM DTNB prepared in a 7.5 pH phosphate buffer) was added to each well, and the plates were incubated for 15 min at 30 °C. After 15 min, 40 μL of a 10 U/mL glutathione reductase solution was added to each well and the formation of 5-thio-2-nitrobenzoic acid (TNB) was monitored every 10 s for 3 min (kinetic mode) at 415 nm in a multi-well plate reader (PowerWaveX, BioTek Instruments, Winooski, VT, USA).
The GSH levels were standardized to protein content. The results are presented as a percentage relative to the control cells (0 µM). A minimum of 6 independent experiments were conducted, in duplicate.
Glutamate/cysteine ligase (GCL), also recognized as gamma-glutamylcysteine synthetase (γ-GCS), is a key enzyme in the first step of glutathione biosynthesis, as it catalyzes the reaction between glutamate and cysteine to produce γ-glutamylcysteine. […] The SH-SY5Y cells were seeded onto 6-well plates (25,000 cells/cm^2) following the previously described seeding and differentiation protocol. On the day of the experiment, the cells were incubated with BSO (100 µM) for 24 h (37 °C, 5% CO2) and the quantification of GSH intracellular levels was achieved according to the previously described method in Section 2.11.

[7] = system: differentiated SH-SY5Y cells; experiment: Neutral red (NR) uptake cytotoxicity assay; assay type: cell-based, human
Protocol: The cells were seeded at a density of 25,000 cells/cm^2. To achieve a more mature neuron-like phenotype, SH-SY5Y cells were initially cultured in a complete medium supplemented with RA (10 µM). Subsequently, 3 days post-seeding, TPA (80 nM) was added to each well, and the cells were maintained for another 3 days until use, thus achieving a dopaminergic phenotype. In all the experiments, the cells were used between passages 22 and 28.
The differentiated SH-SY5Y cells (25,000 cells/cm^2) and primary rat cortical cultures (150,000 cells/cm^2) were seeded onto 96-well plates as previously described.
Accordingly, 6 days after seeding (differentiated SH-SY5Y cells) or at 8 DIV (primary cultures), the cells were exposed, for 24 h (37 °C, 5% CO2), to different concentrations of the drugs (0–1000 µM). Thus, the tested concentrations ranged from 0 to 1000 µM for 2C-T-2 and 2C-T-4; 0 to 500 µM for 2C-T-7; 0 to 250 µM for 25T2-NBOMe, and 0 to 100 µM for 25T4-NBOMe and 25T7-NBOMe.
The NR uptake assay is based on the detection of viable cells through the incorporation of the NR dye by the cell’s lysosomes. In brief, after 24 h of exposure to the tested drugs, the differentiated SH-SY5Y cells and primary rat cortical cultures were incubated with NR (50 µg/mL in complete medium) for 90 or 210 min, respectively, at 37 °C, in a 5% CO2-95% air atmosphere. To extract the absorbed dye, an acidified ethanol solution was used, and the absorbance was then measured at 540 nm in a multi-well plate reader (PowerWaveX, BioTek Instruments, Winooski, VT, USA). The cytotoxicity was estimated by the percentage of NR uptake relative to the control cells, and a minimum of 4 independent experiments were conducted in triplicate.

[8] = design: method as in earlier work; conditions: reported CHI values of the calibration set; cited from earlier work
[9] = system: differentiated SH-SY5Y cells; experiment: Mitochondrial membrane potential, JC-1 dye; assay type: cell-based, human; conditions: positive control, 100 µM, 2 h
Text: Mitochondrial membrane potential (ΔΨm) is a valuable parameter that reflects the energy status and functional integrity of cells, and the JC-1 dye is widely used as an indicator of ΔΨm. In healthy cells with high ΔΨm, JC-1 forms J-aggregates that emit red fluorescence. In apoptotic or unhealthy cells with low ΔΨm, JC-1 remains in its monomeric form and emits green fluorescence. The ratio of red to green fluorescence intensity is proportional to the degree of polarization of the mitochondrial membrane (a higher ratio indicates a more polarized membrane).
Thus, the SH-SY5Y cells were seeded onto 24-well plates (25,000 cells/cm^2) following the previously described seeding and differentiation protocol. On the day of the experiment, the cells were exposed to different concentrations of the tested drugs (EC20 and EC50) for 24 h (37 °C, 5% CO2). CCCP (100 µM, 2 h) was used as a positive control for mitochondrial membrane depolarization. At the end of the incubation period, the medium was removed, and the cells were incubated, for 30 min, with 10 µM JC-1 under light protection (37 °C, 5% CO2). Subsequently, the plates were centrifuged (5 min, 300× g, room temperature), the supernatants were rejected, and the cells were washed 2 times with warm HBSS with calcium and magnesium. Fluorescence was recorded at the wavelengths of 485 nm excitation and 535 nm emission for JC-1 monomers and 535 nm excitation and 595 nm emission wavelengths for J-aggregates in a multi-well plate reader (PowerWaveX, BioTek Instruments, Winooski, VT, USA). The results are presented as the percentage of JC-1 red/green fluorescence ratio relative to the control cells, and a minimum of 5 independent experiments were conducted in triplicate.

In the case of `COc1cc(CCN)c(OC)cc1Cl` [2C-C, reference compound], the “mitochondrial production of ROS” value [1] is given as “no significant alterations”.
For `COc1cc(CCN)c(OC)cc1C` [2C-D], the “deamination by MAO-A and MAO-B” value [2] is given as “both isoenzymes can catalyze the deamination”.
In the case of `CCc1cc(OC)c(CCN)cc1OC` [2C-E], the “deamination by MAO-A and MAO-B” value [2] is listed as “both isoenzymes can catalyze the deamination”.
For `COc1cc([N+](=O)[O-])c(OC)cc1CCN` [2C-N], the “drug-induced cytotoxicity upon MAO inhibition” value [3] is given as “significant increase in the drug-induced cytotoxicity was observed upon MAO inhibition”, the ROS production [4] is given as “no ROS production” and the tGSH content [5] is given as “significant decrease in the tGSH content”.
In the case of `COc1cc(CCNCc2ccccc2OC)c(OC)cc1Cl` [25C-NBOMe], the ROS production [4] is given as “no ROS production” and the tGSH content [5] is given as “significant decrease in the tGSH content”.
In the case of `COc1cc([N+](=O)[O-])c(OC)cc1CCNCc1ccccc1OC` [25N-NBOMe], the “drug-induced cytotoxicity upon MAO inhibition” value [3] is listed as “significant increase in the drug-induced cytotoxicity was observed upon MAO inhibition”.
For `CCCCS(=N)(=O)CCC(N)C(=O)O` [BSO, L-buthionine sulfoximine, reference compound], the “GSH intracellular levels, % of control cells” value [6] was 9.2% and the “cytotoxicity, NR uptake” value ([7]; 100 μM, 24 h (Figure S2: + 50 μM for an additional 24 h)) was “No significant cytotoxic effects”.
For `c1ccc(CN2CCNCC2)cc1` [BZP], the ROS production [4] is listed as “no ROS production” and the tGSH content [5] is listed as “significant decrease in the tGSH content”.
In the case of `c1ccc2[nH]cnc2c1` [Benzimidazole], the “CHI0 pH 2.3” value [8] is listed as 6.3.
In the case of `CCCC(=O)c1ccccc1` [Butyrophenone], the “CHI0 pH 2.3” value [8] is given as 87.3.
With `N#CC(C#N)=NNc1cccc(Cl)c1` [CCCP, carbonyl cyanide 3-chlorophenylhydrazone, reference compound] the “mitochondrial membrane polarization (JC-1 red/green ratio), % of the control cells” value [9] was 56.3%.
For `Cn1c(=O)c2c(ncn2C)n(C)c1=O` [Caffeine, caffeine], the “CHI0 pH 2.3” value [8] is listed as 23.41.
For `NC(=O)N1c2ccccc2C=Cc2ccccc21` [Carbamazepine], the “CHI0 pH 2.3” value [8] is given as 60.42.
In the case of `COc1cc2c(c(OC)c1OC)-c1ccc(OC)c(=O)cc1[C@@H](NC(C)=O)CC2` [Colchicine], the “CHI0 pH 2.3” value [8] is given as 43.9.
For `c1ccc2[nH]ccc2c1` [Indole], the “CHI0 pH 2.3” value [8] is given as 72.1.
For `c1cc2c(cc1CN1CCNCC1)OCO2` [MDBP], the ROS production [4] is given as “no ROS production” and the tGSH content [5] is given as “significant decrease in the tGSH content”.
In the case of `COc1ccc(N2CCNCC2)cc1` [MeOPP], the ROS production [4] is listed as “no ROS production” and the tGSH content [5] is listed as “significant decrease in the tGSH content”.
For `CC(=O)Nc1ccc(O)cc1` [Paracetamol], the “CHI0 pH 2.3” value [8] is given as 18.77.
For `CCC(=O)c1ccccc1` [Propiophenone], the “CHI0 pH 2.3” value [8] is given as 77.4.
In the case of `FC(F)(F)c1cccc(N2CCNCC2)c1` [TFMPP], the ROS production [4] is given as “no ROS production” and the tGSH content [5] is given as “significant decrease in the tGSH content”.
In the case of `Cn1c(=O)c2[nH]cnc2n(C)c1=O` [Theophyline, theophylline], the “CHI0 pH 2.3” value [8] is listed as 17.9.
In the case of `C#CCN(C)CCCOc1ccc(Cl)cc1Cl` [clorgyline, reference compound], the “cytotoxicity, NR uptake” value ([7]; 1 μM, 24 h of exposure) is reported as “Neither clorgyline nor rasagiline (1 μM) showed significant cytotoxicity”.
For `COc1ccccc1CNCCc1cc(OC)c(OC)c(OC)c1` [mescaline-NBOMe], the “drug-induced cytotoxicity upon MAO inhibition” value [3] is given as “significant increase in the drug-induced cytotoxicity was observed upon MAO inhibition”, the ROS production [4] is given as “no ROS production” and the tGSH content [5] is given as “significant decrease in the tGSH content”.
In the case of `COc1cc(CCN)cc(OC)c1OC` [mescaline], the “drug-induced cytotoxicity upon MAO inhibition” value [3] is given as “significant increase in the drug-induced cytotoxicity was observed upon MAO inhibition”, the ROS production [4] is given as “no ROS production” and the tGSH content [5] is given as “significant decrease in the tGSH content”.
In the case of `C#CCN[C@@H]1CCc2ccccc21` [rasagiline, rasagiline mesylate, reference compound], the “cytotoxicity, NR uptake” value ([7]; 1 μM, 24 h of exposure) is reported as “Neither clorgyline nor rasagiline (1 μM) showed significant cytotoxicity”.
